≈ marks a conversion by molar mass, not a printed value.
Experiments:
[1] = tested on: Staphylococcus aureus (S. aureus), multidrug resistant clinical isolate; test: agar well diffusion assay; format: cell-based; settings: Staphylococcus aureus; S. aureus; 500 µg/mL of tested compound; 24 h
How it was run: (§1)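 Multidrug-resistant clinical isolates swabbed on Mueller–Hinton agar at about 1–5 × 10^5 CFU/mL; 0.5 cm wells received 50 μL compound at 500 μg/mL in 1% DMSO. Incubation 24 h, 37 °C for bacteria and C. albicans, 25 °C for Aspergillus; inhibition zone diameter measured in mm.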

[2] = tested on: WI-38 human normal fibroblast cells; test: cell viability assay (MTT); format: cell-based; settings: 24 h; for viability at 31.25 µg/mL: read-out: Validity (%) for sample concentrations (µg/mL) 31.25; for viability at 62.5 µg/mL: 62.50 µg/mL, read-out: Validity (%) for sample concentrations (µg/mL) 62.50; for viability at 125 µg/mL: read-out: Validity (%) for sample concentrations (µg/mL) 125; for viability at 250 µg/mL: read-out: Validity (%) for sample concentrations (µg/mL) 250; for viability at 500 µg/mL: read-out: Validity (%) for sample concentrations (µg/mL) 500
How it was run: (§2)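 Cells were grown in RPMI-1640 with 10% heat-inactivated FBS, seeded at 5000 cells/well, and next day exposed to fluorene derivatives at 0, 1, 10, 31.25, 62.5, 125, 250 or 500 µg/mL for 24 h. Viability was then measured by MTT, absorbance at 570 nm.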

[3] = tested on: MDA-MB-231 human breast cancer cells; test: cell viability assay (MTT); format: cell-based; settings: 24 h; for viability at 1 µg/mL: read-out: Validity (%) for sample concentrations (µg/mL) 1; for viability at 10 µg/mL: read-out: Validity (%) for sample concentrations (µg/mL) 10; for viability at 31.25 µg/mL: read-out: Validity (%) for sample concentrations (µg/mL) 31.25; for viability at 62.5 µg/mL: read-out: Validity (%) for sample concentrations (µg/mL) 62.5; for viability at 125 µg/mL: read-out: Validity (%) for sample concentrations (µg/mL) 125; for viability at 250 µg/mL: read-out: Validity (%) for sample concentrations (µg/mL) 250; for viability at 500 µg/mL: read-out: Validity (%) for sample concentrations (µg/mL) 500
How it was run: as §2

[4] = tested on: A549 human lung cancer cells; test: cell viability assay (MTT); format: cell-based; settings: 24 h; for viability at 1 µg/mL: read-out: Validity (%) for sample concentrations (µg/mL) 1; for viability at 10 µg/mL: read-out: Validity (%) for sample concentrations (µg/mL) 10; for viability at 31.25 µg/mL: read-out: Validity (%) for sample concentrations (µg/mL) 31.25; for viability at 62.5 µg/mL: 62.50 µg/mL, read-out: Validity (%) for sample concentrations (µg/mL) 62.50; for viability at 125 µg/mL: read-out: Validity (%) for sample concentrations (µg/mL) 125; for viability at 250 µg/mL: read-out: Validity (%) for sample concentrations (µg/mL) 250; for viability at 500 µg/mL: read-out: Validity (%) for sample concentrations (µg/mL) 500; for viability at 1000 µg/mL: read-out: Validity (%) for sample concentrations (µg/mL) 1000
A549 cells = test: FACS analysis, Annexin V and PI staining; format: cell-based, human; settings: 24 h, 5g 500, 6c 85, 6d 117, 6k 200 µg/mL
Experimental: (§3) To uncover the mechanism of cell death for the compounds 5h, 6c, 6d and 6k on WI-38, A549, and MDA-MB-231 cells; Annexin v and propedium Iodide (PI) were used. In brief, WI-38, A549, MDA-MB-231 cells were cultured in 10 tissue culture dish with initial number 4 × 10^5 cell/Ml in RPMI growth media. In the following day, cells were treated with 6c, 6d and 6k as the following; (0.0, 500 μg/mL form each drug for WI-38 treatment, 0.0, 85, 117 and 200 μg/mL; respectively, for […] and 0.0, 250 from each for MDA-MB-231 cells treatment). After 24 h incubations, cells were washed and trypsinized and suspended in 50 μL 1X Annexin v binding buffer followed by adding 5 μL FITC Annexin V and incubated for 15 min at room temperature then 5 μL of PI were added to each tube. Finally, 400 μL of 1X Annexin v binding buffer were added to each tube and analyzed using Becton-Dickinson FACS Caliber.

WI-38 cells = test: FACS analysis, Annexin V and PI staining; format: cell-based, human; settings: 24 h, 5g 1000 µg/mL, 6c, 6d, 6k 500 µg/mL
Experimental: as §3

MDA-MB-231 cells = test: FACS analysis, Annexin V and PI staining; format: cell-based, human; settings: 24 h, 5g 500, 6c 105, 6d 170, 6k 130 µg/mL
Experimental: To uncover the mechanism of cell death for the compounds 5h, 6c, 6d and 6k on WI-38, A549, and MDA-MB-231 cells; Annexin v and propedium Iodide (PI) were used. In brief, WI-38, A549, MDA-MB-231 cells were cultured in 10 tissue culture dish with initial number 4 × 10^5 cell/Ml in RPMI growth media. […] After 24 h incubations, cells were washed and trypsinized and suspended in 50 μL 1X Annexin v binding buffer followed by adding 5 μL FITC Annexin V and incubated for 15 min at room temperature then 5 μL of PI were added to each tube. Finally, 400 μL of 1X Annexin v binding buffer were added to each tube and analyzed using Becton-Dickinson FACS Caliber.

[5] = tested on: Escherichia coli (E. coli), multidrug resistant clinical isolate; test: agar well diffusion assay; format: cell-based; settings: 24 h, 500 µg/mL of tested compound
How it was run: as §1

[6] = tested on: Pseudomonas aeruginosa (P. aeruginosa), multidrug resistant clinical isolate; test: agar well diffusion assay; format: cell-based; settings: 24 h, 500 µg/mL of tested compound
How it was run: as §1

P. aeruginosa = test: MIC by broth microdilution method (resazurin end point); format: cell-based; settings: Pseudomonas aeruginosa, 24 h at 37 °C
Experimental: (§4) Determination of Minimum inhibitory concentrations (MIC) of flourene derivatives was done using broth microdilution method. The procedure involved preparation of twofold dilutions of the fluorene derivatives ranging from (500–7.8 μg/mL) in sterile Mueller–Hinton broth inside the wells of 96-well microplate (Sarstedt, Germany). The inoculums of test strains prepared from fresh overnight cultures were adjusted to 0.5 McFarland standards, which equals to 1–2 × 10^8 CFU/mL for bacteria, the procedure was done according to CLSI 2012 [42]. […] For this assay the positive control agents were vancomycin (range: 0.7–50 μg/mL), gentamicin (range: 0.15–10 μg/mL) and the negative control was 1% DMSO.
(§5) For proper determination of the MIC end point resazurin dye has been used. A stock solution of resazurin sodium salt powder (Titan Biotech) was prepared at 0.02% (wt/vol) in distilled water, sterilized by filtration through a […] filter into a sterile light protected container then stored protected from light at 4 °C for up to 1 week, or at − […] for long term use, then 10–15% resazurin solution of the total volume in wells was added to each well and incubation for 1–4 h at 37 °C was done. A change in color from blue to pink indicates the growth of bacteria, and MIC was defined as the lowest concentration of the drug that prevented this change in color.

E. coli = test: as above; format: cell-based; settings: Escherichia coli, 24 h at 37 °C
Experimental: as §4, §5

[7] = tested on: Klebsiella pneumoniae (K. pneumoniae), multidrug resistant clinical isolate; test: agar well diffusion assay; format: cell-based; settings: 24 h, 500 µg/mL of tested compound
How it was run: as §1

[8] = tested on: methicillin-resistant Staphylococcus aureus (MRSA); test: agar well diffusion assay; format: cell-based; settings: Staphylococcus aureus, 500 µg/mL of tested compound, 24 h
How it was run: as §1

SMILES	zone of inhibition at 500 µg/mL [1] [mm]	viability at 31.25 µg/mL [2] [%]	viability at 62.5 µg/mL [2] [%]	viability at 125 µg/mL [2] [%]	viability at 250 µg/mL [2] [%]	viability at 500 µg/mL [2] [%]	IC50 [2] [µg/mL]	viability at 1 µg/mL [3] [%]	viability at 10 µg/mL [3] [%]	viability at 31.25 µg/mL [3] [%]	viability at 62.5 µg/mL [3] [%]	viability at 125 µg/mL [3] [%]	viability at 250 µg/mL [3] [%]	viability at 500 µg/mL [3] [%]	IC50 [3] [µg/mL]	viability at 1 µg/mL [4] [%]	viability at 10 µg/mL [4] [%]	viability at 31.25 µg/mL [4] [%]	viability at 62.5 µg/mL [4] [%]	viability at 125 µg/mL [4] [%]	further results
O=C(O)c1ccc(C2SCC(=O)N2c2nc(-c3cc(Cl)cc4c3-c3ccc(Cl)cc3C4)cs2)cc1 (stereo not shown) [5g, 4-(3-(4-(2,7-Dichloro-9H-fluoren-4-yl)thiazol-2-yl)-4-oxothiazolidin-2-yl)benzoic acid]	10	96.7	95.1	90.2	85.8	79.2	> 500	92.6	87.3	80.9	72.2	67.7	63.2	58.5	> 500	93.7	90.3	88.7	78.6	84.1	viability at 250 µg/mL [4]: 75.7%; viability at 500 µg/mL [4]: 56.3%; viability at 1000 µg/mL [4]: 16.8%; IC50 [4]: 572 µg/mL (≈ 1060 µM); apoptotic cell death (of total cell number) (A549 cells): 1.25%; necrotic cell death (of total cell number) (A549 cells): 16.7%; apoptotic cell death (of total cell number) (WI-38 cells): 1.5%; necrotic cell death (of total cell number) (WI-38 cells): 15.8%; apoptotic cell death (of total cell number) (MDA-MB-231 cells): 1.34%; necrotic cell death (of total cell number) (MDA-MB-231 cells): 14.1%
O=C1CSC(c2ccco2)N1c1nc(-c2cc(Cl)cc3c2-c2ccc(Cl)cc2C3)cs1 (stereo not shown) [5j, 3-(4-(2,7-Dichloro-9H-fluoren-4-yl)thiazol-2-yl)-2-(furan-2-yl)thiazolidin-4-one]	6	84.2	66.1	61.5	39.1	38.5	196 (≈ 404 µM)	94.4	74.8	67	61.4	60.2	57.2	49.3	435 (≈ 896 µM)	92.9	84.6	83.6	82.5	81.6	zone of inhibition at 500 µg/mL [5]: 10 mm; zone of inhibition at 500 µg/mL [6]: 8 mm; melting point: 139 to 141 °C; MIC (P. aeruginosa): 62.5 µg/mL (≈ 129 µM); MIC (E. coli): 62.5 µg/mL (≈ 129 µM); viability at 250 µg/mL [4]: 77.5%; viability at 500 µg/mL [4]: 71.4%; viability at 1000 µg/mL [4]: 52.5%; IC50 [4]: 1050 µg/mL (≈ 2150 µM)
O=C1C(Cl)C(c2ccncc2)N1c1nc(-c2cc(Cl)cc3c2-c2ccc(Cl)cc2C3)cs1 (stereo not shown) [6m, 3-Chloro-1-(4-(2,7-dichloro-9H-fluoren-4-yl)thiazol-2-yl)-4-(pyridin-4-yl)azetidin-2-one]	4	78.5	72.8	68.5	63	55.7	> 500	93.2	89.9	77.6	73.2	67.1	63.4	59.5	> 500	91.5	81.8	67.6	65.9	62.7	zone of inhibition at 500 µg/mL [7]: 3 mm; zone of inhibition at 500 µg/mL [5]: 27 mm; zone of inhibition at 500 µg/mL [8]: 6 mm; melting point: 249 to 250 °C; MIC (E. coli): 15.6 µg/mL (≈ 31.3 µM); viability at 250 µg/mL [4]: 58.7%; viability at 500 µg/mL [4]: 54.1%; viability at 1000 µg/mL [4]: 49.8%; IC50 [4]: 830 µg/mL (≈ 1660 µM)

From publication PMC7315563, “Bioactive fluorenes. Part III: 2,7-dichloro-9H-fluorene-based thiazolidinone and azetidinone analogues as anticancer and antimicrobial against multidrug resistant strains agents” (BMC Chemistry, 2020)
